# Measurements: US8921398B2 (Boehringer Ingelheim International GmbH, priority 2011, dated 2014)
# Molecular target: T1, human GPR119 (Homo sapiens, UniProt Q8TDV5)
# T1 construct: expression vector for human GPR119 cDNA (Acc. No. NP_848566); expressed in transfected cells
# T1 sequence (Q8TDV5 1-335): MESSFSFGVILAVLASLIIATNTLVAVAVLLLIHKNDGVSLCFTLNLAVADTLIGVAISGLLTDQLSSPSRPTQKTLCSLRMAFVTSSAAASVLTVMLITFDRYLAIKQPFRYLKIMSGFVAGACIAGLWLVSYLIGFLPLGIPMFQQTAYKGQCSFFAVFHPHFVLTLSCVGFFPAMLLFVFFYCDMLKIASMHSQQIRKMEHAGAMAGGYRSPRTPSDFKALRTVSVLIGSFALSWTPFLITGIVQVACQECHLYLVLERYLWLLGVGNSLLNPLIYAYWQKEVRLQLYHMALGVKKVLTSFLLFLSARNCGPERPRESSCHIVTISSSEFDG
# Experiment: AlphaScreen cAMP assay in MIN6 cells stably transfected with human GPR119
# Assay type: cell-based
# Conditions: Min-6/hGPR119 cells, 45 minutes incubation at room temperature
# Protocol: The compounds of formula I according to the invention modulate the activity of the G-protein-coupled receptor GPR119. The effect of the compounds on the activation of GPR119 and on the stimulation of intracellular cAMP concentration is determined using the AlphaScreen cAMP Assay Kit (Cat.No.#6760625R) made by PerkinElmer.
# MIN6 cells [Miyazaki J et al. Endocrinology. 1990 July; 127(1):126-32] are stably transfected with an expression vector for human GPR119 cDNA (Acc. No. NP_848566). Min-6/hGPR119 cells are cultured in DMEM, 10% FBS, 50 μM β-mercaptoethanol, 0.3 mg/mL Geniticin, 2 mM GlutaMAX at 37° C. 5% CO2. For the assay, the cells are seeded in Optiplates (white, 384-well, 160W-barcoded, TC, sterile with lid, Cat.No.#6007688 (Perkin Elmer); 10000 cells/well; 50 μl). The plates covered with lids are then incubated for 24 hours at 37° C./5% CO2. After the medium is aspirated from the wells completely, 10 μl of the test compound are added, the compounds are diluted using stimulating buffer (140 mM NaCl, 3.6 mM KCl, 0.5 mM NaH2PO4, 0.5 mM MgSO4, 1.5 mM CaCl2, 10 mM Hepes, 5 mM NaHCO3; pH 7.4. 0.5 mM IBMX and 0.1% BSA, the final DMSO concentration is 1%). After 45 minutes incubation at room temperature (approx. 20° C.), the cAMP concentrations are determined using the AlphaScreen cAMP Assay Kit (Cat.No.#6760625R from PerkinElmer).
row,EC50 [nM],Compound
1,67,"CCCc1noc(N2CCC(N(C(=O)c3cnc(-c4cnco4)cn3)C3CC3)CC2)n1 [Example 39, 5-Oxazol-5-yl-pyrazine-2-carboxylic acid cyclopropyl-[1-(3-propyl-[1,2,4]oxadiazol-5-yl)-piperidin-4-yl]-amide]"
2,32,"CCc1noc(N2CCC(N(C(=O)c3cnc(-c4ccc(C#N)c(F)c4)nc3)C3CC3)CC2)n1 [Example 11, 2-(4-Cyano-3-fluoro-phenyl)-pyrimidine-5-carboxylic acid cyclopropyl-[1-(3-ethyl-[1,2,4]oxadiazol-5-yl)-piperidin-4-yl]-amide]"
3,103,"CCCc1noc(N2CCC(N(C(=O)c3cnc(-n4ccnc4CC)nc3)C3CC3)CC2)n1 [Example 23, 2-(2-Ethyl-imidazol-1-yl)-pyrimidine-5-carboxylic acid cyclopropyl-[1-(3-propyl-[1,2,4]oxadiazol-5-yl)-piperidin-4-yl]-amide]"
4,21,"CCc1cnc(N2CCC(N(C(=O)c3cnc(-n4ccnc4C)nc3)C3CC3)CC2)nc1 [Example 14, 2-(2-Methyl-imidazol-1-yl)-pyrimidine-5-carboxylic acid cyclopropyl-[1-(5-ethyl-pyrimidin-2-yl)-piperidin-4-yl]-amide]"
5,97,"Cc1cnc(N2CCC(N(C(=O)c3cnc(-n4ccnc4C)nc3)C3CC3)CC2)cn1 [Example 19, 2-(2-Methyl-imidazol-1-yl)-pyrimidine-5-carboxylic acid cyclopropyl-[1-(5-methyl-pyrazin-2-yl)-piperidin-4-yl]-amide]"
